The molecules below were run against T1, factor IXa (Homo sapiens, UniProt P00740) (assay: Factor IXa enzyme assay (inhibition of enzymatic activity of FIXa, substrate PEFA 3107)). Settings: 277 nM factor IXa, pH 7.4, 15 min preincubation at room temperature, read at 405 nm.
T1 construct: Factor IX is a proenzyme; purchased Calbiochem (Merck KGaA) 233290
Assay type: biochemical
Method: The prepared substances from the examples were tested for inhibition of the enzymatic activity of FIXa using the substrate PEFA 3107 (Pentapharm/Loxo; via S. Black GmbH, Baumstrasse 41, 47198 Duisburg, Germany; Pr. No. 095-20) and factor IXa (Calbiochem, Merck KGaA markets Calbiochem in Germany, Life Science & Analytics, 64293 Darmstadt; Pr. No. 233290). In this method, 28 μl of test buffer (50 mM α,α,α-tris(hydroxymethyl)methylamine (TRIS), 100 mM NaCl, 5 mM CaCl2, 0.1% bovine serum albumin, pH 7.4) and 10 μl of factor IXa (277 nM final concentration in the test batch) were added to 2 μl of 10 mM dimethyl sulfoxide solution of the respective test substance, and the mixture was incubated for 15 minutes at room temperature in a 96 half-well microtiter plate. The enzyme reaction was started by addition of 10 μl of substrate (1 mM stock solution in water). The time course of the reaction was monitored at 405 nm in a microtiter plate reader (SpectraMax plus 384; Molecular Devices) for 15 minutes. The IC50 was calculated from the averaged values (duplicate determination) of a dilution series of the test substance with the aid of the software Grafit 4 (Erithacus Software, UK). The inhibition constants (Ki) were calculated according to the Cheng Prusoff equation Ki=IC50/(1+(S/Km), where S=concentration of the test substrate in the test and Km=Michaelis-Menten constant.

T1 sequence (P00740 227-461 limits assumed): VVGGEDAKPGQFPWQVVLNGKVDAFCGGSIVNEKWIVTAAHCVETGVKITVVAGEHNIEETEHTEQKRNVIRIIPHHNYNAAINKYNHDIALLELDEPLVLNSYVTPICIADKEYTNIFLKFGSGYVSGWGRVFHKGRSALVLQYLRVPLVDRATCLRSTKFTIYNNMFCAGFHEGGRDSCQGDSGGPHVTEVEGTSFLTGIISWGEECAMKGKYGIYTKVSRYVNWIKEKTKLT
T1 sequence (P00740 47-191 partner limits assumed): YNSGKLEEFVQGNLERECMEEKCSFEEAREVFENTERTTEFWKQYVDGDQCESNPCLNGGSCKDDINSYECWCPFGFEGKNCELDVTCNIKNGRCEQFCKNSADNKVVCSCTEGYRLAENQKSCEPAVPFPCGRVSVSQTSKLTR

IC50	SMILES
0.22 µM	Cc1ccc(NC(=O)[C@H](O)[C@@H](O)C(=O)Nc2ccc3c(N)nccc3c2)cc1 [Example 1, (2R,3R)—N-(1-Aminoisoquinolin-6-yl)-2,3-dihydroxy-N′-p-tolyltartaramide; compound with trifluoroacetic acid]
0.17 µM	Cc1ccc(NC(=O)[C@H](O)[C@@H](O)C(=O)Nc2ccc(C(=N)N)cc2)cc1 [Example 5, (2R,3R)—N-(4-Carbamimidoylphenyl)-2,3-dihydroxy-N′-p-tolylsuccinamide; compound with trifluoroacetic acid]
0.37 µM	Nc1nc2ccc(NC(=O)[C@H](O)[C@@H](O)C(=O)Nc3ccc(Oc4ccccc4)cc3)cc2[nH]1 [Example 12, (2R,3R)—N-(2-amino-3H-benzimidazol-5-yl)-2,3-dihydroxy-N′-(4-phenoxyphenyl)-tartaramide]

— patent publication US8263621B2, “Tartrate derivatives for use as coagulation factor IXa inhibitors” (Sanofi, priority 2006, dated 2012)
